Data: patent US20190038641A1, “COMBINATION THERAPY FOR CASTRATION-RESISTANT PROSTRATE CANCER” (The Board of Regents of the University of Texas System, priority 2016, published 2019)

Columns and labels:
Assay type in all cases: cell-based, human
CYP24A1 = assay: Regulation of CYP24A1 mRNA expression in C4-2B castration-resistant cells (QRT-PCR)
Excerpt: FIG. 2. Regulation of CYP24A1 in C4-2B castration resistant cell lines.
CYP24A1 induction by calcitriol has been reported by many laboratories. However, complete suppression of this induction by androgen has not been reported in the literature.
(§1) Dampened vitamin D/VDR-induced CYP24A1 mRNA expression in the presence of androgen is beneficial, as it would prevent ligand degradation, thereby enhancing VDR signaling.

SULT2B1 = assay: QRT-PCR assay of SULT2B1 mRNAs in C4-2B cells; details: EB1089 10 nM, R1881 1 nM, FIG. 3B
Excerpt: as §1

HSD3β-1 = assay: Regulation of HSD3β-1 expression (quantitative RT-PCR, Western blot) in castration-resistant prostate cancer cell lines; details: C4-2B and C4-2 castration-resistant prostate cancer cell lines; FIG. 1
Excerpt: FIG. 1. Regulation of HSD3β-1 in C4-2B castration-resistant cell lines.

| Compound | CYP24A1 mRNA expression (induction) (CYP24A1; C4-2B cells, EB1089 10 nM, R1881 1 nM, FIG. 3A) [fold] | induction of SULT2B1 mRNAs (SULT2B1) | induction of CYP24A1 (CYP24A1; C4-2B castration-resistant cells, calcitriol with or without androgen, FIG. 2) | expression of HSD3β-1 (messenger RNA and protein levels) (HSD3β-1) |
| --- | --- | --- | --- | --- |
| C=C1/C(=C\C=C2/CCC[C@]3(C)[C@@H]([C@H](C)/C=C/C=C/C(O)(CC)CC)CC[C@@H]23)C[C@@H](O)C[C@@H]1O [EB1089] | ~2000 | induction | – | – |
| C=C1/C(=C\C=C2/CCC[C@]3(C)[C@@H]([C@H](C)CCCC(C)(C)O)CC[C@@H]23)C[C@@H](O)C[C@@H]1O [calcitriol, 1,25-dihydroxycholecalciferol] | – | – | three orders of magnitude and more | strongly induced |
